For data set [1], the system named is SW480. The data set is described as follows: Antiproliferative activity against human SW480 cells assessed as reduction in cell growth at 100 uM incubated for 72 hrs by trypan blue assay relative to control. It counts as functional.
Data set [2] concerns PANC-1. Briefly: Antiproliferative activity against human PANC-1 cells assessed as cell death at 100 uM incubated for 72 hrs by trypan blue assay relative to control. The format is functional, cell-based.
The test system of data set [3] is PC-3. Briefly: Antiproliferative activity against human PC-3 cells assessed as cell death at 100 uM incubated for 72 hrs by trypan blue assay (reference value: 3%). It counts as functional.
The subject of data set [4] is PANC-1. Briefly: Antiproliferative activity against human PANC-1 cells assessed as reduction in cell growth at 100 uM incubated for 72 hrs by trypan blue assay relative to control. It counts as functional.
Data set [5] has as its system PC-3. The data set is described as follows: Antiproliferative activity against human PC-3 cells assessed as reduction in cell growth at 100 uM incubated for 72 hrs by trypan blue assay relative to control. It counts as functional.
Data set [6] is described as follows: Stability of compound in alkaline phosphatase by HPLC analysis. It counts as ADME.
A short description of data set [7]: Stability of compound in simulated intestinal fluid assessed as parent compound remaining at pH 6.8 at 1 mM measured after 48 hrs by HPLC analysis. The format is ADME. The following applies: simulated gi fluid, pH 6.8, 48 h, 1000 µM.
Data set [8] in a line: Stability of compound in simulated gastric fluid assessed as drug degradation at pH 1.2 at 1 mM measured after 48 hrs by HPLC analysis. It counts as ADME. The note with it: read-out: Drug degradation.
The nature of data set [9]: Stability of compound in human serum assessed as parent compound remaining measured upto 96 hrs by HPLC analysis. It counts as ADME, cell-free.
The test system of data set [10] is SW480. The data set is described as follows: Antiproliferative activity against human SW480 cells assessed as cell death at 100 uM incubated for 72 hrs by trypan blue assay relative to control. It counts as functional, cell-based.

Structures are written as SMILES. Active and inactive are the calls of the source. The rule behind the calls is not given here.

With `COc1cc(CCO)ccc1O`, the inhibition at 100 µM in data set [1] stood at 12%. Further, the result in data set [2] and in data set [3] was Active. Also, the inhibition entry in data set [4] and in data set [5] was “inactive” in each case.
As for `COc1cc(CCOP(=O)([O-])OCCc2ccc(O)cc2)ccc1O.[Na+]`, the Stabilty result in [6], in data set [7] and in data set [9] was “Stable” each time. Besides, the inhibition entry in data set [1] was “Active”. In data set [2], the result was Active. In [3], the Activity amounted to 23%. Further, in data set [4], the inhibition entry was “inactive”. Besides, the inhibition at 100 µM in data set [5] amounted to 28%. Also, in [8], the degraded at 48 h, 1000 µM is under 5%.
For `O=P([O-])(OCCc1ccc(O)cc1)OCCc1ccc(O)c(O)c1.[Na+]`, the Stabilty entry in data set [6], in data set [7] and in data set [9] was “Stable” throughout. The inhibition result in data set [1] and in data set [5] was “Active” in each case. Also, the result in data set [2] and in data set [3] was Active. Also, the inhibition entry in data set [4] is “inactive”. Also, the degraded at 48 h, 1000 µM in data set [8] was under 5%.
Regarding `OCCc1ccc(O)cc1` [TYROSOL], the inhibition at 100 µM in data set [1] was found to be 12%; in [5] it was 13%. The result in data set [2] was Active. Besides, in data set [3], the Activity is given as 7%. The inhibition entry in data set [4] was “inactive”.
Take `COc1cc(CCOP(=O)([O-])OCCc2ccc(O)c(OC)c2)ccc1O.[Na+]`: the Stabilty entry in [6], in data set [7] and in data set [9] was “Stable” throughout. For the same compound, the inhibition entry in data set [1] and in data set [5] was “Active” throughout. For the same compound, the outcome in [2] and in [3] was Active. For the same compound, the inhibition entry in data set [4] is “inactive”. Also, the degraded at 48 h, 1000 µM in data set [8] is under 5%.
For the compound `O=P([O-])(OCCc1ccc(O)cc1)OCCc1ccc(O)cc1.[Na+]`, the Stabilty entry in data set [6], in [7] and in data set [9] was “Stable” each time. Further, the inhibition entry in [1] and in data set [5] was “Active” throughout. The outcome in data set [2] and in [3] was Active. Also, the inhibition entry in [4] is “inactive”. Also, the degraded at 48 h, 1000 µM in data set [8] was under 5%.
Take `OCCc1ccc(O)c(O)c1` [HYDROXYTYROSOL]: the inhibition at 100 µM in data set [1] is 38%; in [4], 15%; in data set [5], 33%. Besides, the outcome in data set [2] was Active.
Turning to `O=P([O-])(OCCc1ccc(O)c(O)c1)OCCc1ccc(O)c(O)c1.[Na+]`, the Stabilty result in data set [6], in data set [7] and in data set [9] was “Stable” each time. In addition, the inhibition at 100 µM in [1] was 25%. Besides, the outcome in data set [2], in data set [3] and in data set [10] was Active. In data set [4], the inhibition result is “inactive”. The inhibition entry in [5] was “Active”. In data set [8], the degraded at 48 h, 1000 µM is under 5%.
As for `COc1cc(CCOP(=O)([O-])OCCc2ccc(O)c(O)c2)ccc1O.[Na+]`, the Stabilty result in [6], in [7] and in data set [9] was “Stable” each time. In addition, in data set [1], the inhibition at 100 µM amounted to 15%. In addition, the outcome in [2], in [3] and in data set [10] was Active. For the same compound, the inhibition result in data set [4] is “inactive”. Moreover, the inhibition entry in data set [5] was “Active”. Moreover, the degraded at 48 h, 1000 µM in [8] is under 5%.

As usually defined, the inhibition is the percentage by which the read-out fell short of the control.

The record behind these values is ChEMBL document CHEMBL4811302, “Solid-phase synthesis of curcumin mimics and their anticancer activity against human pancreatic, prostate, and colorectal cancer cell lines” (Bioorg Med Chem, 2021).
